Measurements taken from ChEMBL document CHEMBL1125467, “Structure-activity relationship in the gastric cytoprotective effect of several sesquiterpene lactones” (1992).

system: Rattus norvegicus; experiment: Cytoprotective effect at an oral dose of 40 mg/kg; format: functional; design: unit not given here

Row | Structure (SMILES) | Cytoprotective effect
1 | C=C1C(=O)O[C@@H]2[C@H]1CC[C@H](C)[C@@]1(O)C=CC(=O)[C@@]21C [HYMENIN] | 0.25
2 | C=C1C(=O)O[C@@H]2C[C@@H](C)C3C=CC(=O)[C@@]3(C)[C@@H](OC(C)=O)[C@H]12 (some centres not stated) | 1
3 | CC1C(=O)O[C@@H]2[C@H]1CC[C@H](C)[C@@]1(O)C=CC(=O)[C@@]21C (some centres not stated) | 4
4 | C=C1C(=O)O[C@@H]2[C@H]3C(C)=CC(=O)C3=C(C)CC[C@@H]12 [DEHYDROLEUCODIN] | 0.25
5 | C=C1C(=O)O[C@@H]2C[C@@H](C)C3CCC(=O)[C@@]3(C)[C@@H](O)[C@H]12 (some centres not stated) | 1
6 | C=C1C(=O)O[C@H]2C[C@@H](C)[C@@H]3C=CC(=O)[C@@]3(C)[C@H](O)[C@H]12 [MEXICANIN I] | 0.25
7 | C=C1C(=O)O[C@@H]2C[C@@H](C)C3=CCC(=O)[C@@]3(C)[C@@H](OC(C)=O)[C@H]12 | 0.9
8 | C=C1C(=O)OC2/C=C(\C)C[C@@H]3C=C(CC(OC(=O)C(C)CC)[C@@H]12)C(=O)O3 (some centres not stated) | 4
9 | C=C1C(=O)O[C@@H]2C[C@@H](C)[C@@H]3C=CC(=O)[C@@]3(C)[C@@H](O)[C@H]12 [HELENALIN] | 0.33
10 | C=C1C(=O)O[C@@H]2C[C@@H](C)C3C=CC(=O)[C@@]3(C)[C@@H](OC(=O)CN)[C@H]12 (some centres not stated) | 0.85
11 | C=C1C(=O)O[C@@H]2C[C@@H](C)C3CCC(C)=C3[C@@H](O)[C@H]12 (some centres not stated) [GUAIANOLIDE] | 0.7
12 | CC1=CC(=O)C2C(C)CC[C@H]3[C@H](C)C(=O)O[C@@H]3[C@]12C (some centres not stated) | 3.5
13 | C=C1C(=O)O[C@@H]2C[C@@H](C)C3C=CC(=O)[C@@]3(C)[C@@H](OC(=O)CNC(=O)C(F)(F)F)[C@H]12 (some centres not stated) | 0.95
14 | C[C@@H]1C[C@H]2OC(=O)[C@H](C)[C@H]2[C@H](O)[C@]2(C)C(=O)C=CC12 (some centres not stated) | 0.66
15 | C=C1C(=O)O[C@H]2[C@H]1CCC(C)=C1C[C@H]3O[C@@]3(C)[C@@H]12 [LUDARTIN] | 0.5

system: Rattus norvegicus; experiment: Compound was evaluated for the cytoprotective effect at an oral dose of 40 mg/kg in rat; format: functional

Row | Structure (SMILES) | Cytoprotective effect
16 | C[C@@H]1C[C@H]2OC(=O)[C@H](C)[C@H]2[C@H](O)[C@]2(C)C(=O)CCC12 (some centres not stated) | 3.7
17 | CC1C(=O)O[C@@H]2[C@H]1CC[C@H](C)[C@@]1(O)CCC(=O)[C@@]21C (some centres not stated) | 4.5
